# Assay results: patent publication US20230212180A1, “SUBSTITUTED PYRAZINE COMPOUND, PHARMACEUTICAL COMPOSITION COMPRISING SAME, AND USE THEREOF” (Sichuan Kelun-Biotech Biopharmaceutical Co., Ltd., priority 2020, published 2023)
# How the values were obtained:
# NCI-H358 cell xenograft = assay: Tumor inhibition in NCI-H358 xenograft model; assay type: in vivo, Balb/c-nu mice; details: for TGI (%) (calculated by the tumor volume): oral, 21 days
# Source text: Test Example 10: Experiment on Tumor Inhibition in NCI-H358 Xenograft Model
# A subcutaneous xenograft mouse model was established by subcutaneously inoculating human non-small cell lung cancer cells NCI-H358 into the right scapulae of Balb/c-nu mice. After tumor formation, the mice were orally administered to evaluate the in vivo drug efficacy of different test compounds.
# The NCI-H358 cells were subjected to monolayer in vitro culture. The culture conditions were as follows: 10% fetal bovine serum was added into the RPMI 1640 medium, and the cells were cultured in an incubator at 37° C. in air containing 5% CO2. The cells were digested twice/trice a week with pancreatin-EDTA for passaging. When the cells were in exponential growth phase, the cells were harvested, counted, and inoculated.
# Before inoculated with tumor cells, the experimental mice were identified sequentially with numbered ear spikes specific to mice.
# Every of the mice were subcutaneously inoculated with 1×10^6 NCI-H358 cells (suspended in 0.1 ml PBS+Matrigel Matrix) into the right scapulae. It was predicted that the mean tumor volume on Day 7 would be ˜200 mm^3. Based on the measurement results on Day 7, thirty mice with regular shapes and uniform volumes of tumor were screened, randomly divided into 5 groups and administered according to the experimental scheme (the dosing regimen was as shown in Table 10 (lasting for 21 days)). The vehicle was 5% DMSO+5% Solutol+90% H2O.
# Mice were weighed and tumor volumes were measured trice a week, and the data were recorded. The tumor volume (V) was calculated by the following equation: V=½×a×b^2, wherein a and b indicated the length and width, respectively.
# The anti-tumor efficacy was evaluated by tumor growth inhibition TGI (%). […] When the tumor regressed, TGI (%) (tumor volume)=100%−(TVt−TV0)/TV0×100%.
# If the tumor was smaller than its initial volume, i.e., Vt<V0, it was defined as partial regression (PR) of the tumor. If the tumor disappeared completely, it was defined as complete regression (CR) of the tumor.
# CDK8/ cyclin C = target: T1, CDK8/ cyclin C (Homo sapiens, UniProt P49336); assay: Kinase selectivity test (ThermoFisher); assay type: biochemical; parameters: concentration or dose not given beside the values
# T1 construct: purchased ThermoFisher USA (contract testing)
# T1 sequence (P49336 whole entry): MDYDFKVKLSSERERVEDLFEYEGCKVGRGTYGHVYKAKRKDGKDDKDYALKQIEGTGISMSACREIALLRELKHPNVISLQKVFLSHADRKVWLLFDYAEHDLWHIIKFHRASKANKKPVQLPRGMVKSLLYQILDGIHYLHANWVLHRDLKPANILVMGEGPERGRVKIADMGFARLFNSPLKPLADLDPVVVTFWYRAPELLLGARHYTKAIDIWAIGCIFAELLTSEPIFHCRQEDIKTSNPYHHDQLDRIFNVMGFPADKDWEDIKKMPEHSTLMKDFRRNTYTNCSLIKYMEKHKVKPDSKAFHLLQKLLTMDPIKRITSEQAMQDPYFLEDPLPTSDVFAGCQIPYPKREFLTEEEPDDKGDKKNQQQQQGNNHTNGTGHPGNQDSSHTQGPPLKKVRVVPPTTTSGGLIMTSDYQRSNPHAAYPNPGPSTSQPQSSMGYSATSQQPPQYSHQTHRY
# T1 sequence (P24863 whole entry partner): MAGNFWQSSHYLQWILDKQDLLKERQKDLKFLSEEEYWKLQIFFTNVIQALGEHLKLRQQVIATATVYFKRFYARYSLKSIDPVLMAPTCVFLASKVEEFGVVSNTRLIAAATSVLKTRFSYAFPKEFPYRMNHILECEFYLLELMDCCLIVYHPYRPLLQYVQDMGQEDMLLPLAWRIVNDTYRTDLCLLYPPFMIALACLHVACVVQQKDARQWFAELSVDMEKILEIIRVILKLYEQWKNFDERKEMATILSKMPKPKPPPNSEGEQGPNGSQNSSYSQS
# Method: (§1) Test Example 11: Kinase Selectivity Test
# (§2) 1. Experimental Purpose: Tests for selectivity of the compounds of the present disclosure for a plurality of kinases were carried out to assess the safety risk of the compounds of the present disclosure.
# (§3) 2. Test institution: ThermoFisher USA
# (§4) 3. Testing methods: LanthaScreen binding, Z′-LYTE, Adapta
# (§5) 4. Test targets: 100 targets in total
# MAPKAPK2 = target: T2, MAPKAPK2 (Homo sapiens, UniProt P49137); assay: Kinase selectivity test (ThermoFisher); assay type: biochemical; parameters: concentration or dose not given beside the values
# T2 construct: purchased ThermoFisher USA (contract testing)
# T2 sequence (P49137 whole entry): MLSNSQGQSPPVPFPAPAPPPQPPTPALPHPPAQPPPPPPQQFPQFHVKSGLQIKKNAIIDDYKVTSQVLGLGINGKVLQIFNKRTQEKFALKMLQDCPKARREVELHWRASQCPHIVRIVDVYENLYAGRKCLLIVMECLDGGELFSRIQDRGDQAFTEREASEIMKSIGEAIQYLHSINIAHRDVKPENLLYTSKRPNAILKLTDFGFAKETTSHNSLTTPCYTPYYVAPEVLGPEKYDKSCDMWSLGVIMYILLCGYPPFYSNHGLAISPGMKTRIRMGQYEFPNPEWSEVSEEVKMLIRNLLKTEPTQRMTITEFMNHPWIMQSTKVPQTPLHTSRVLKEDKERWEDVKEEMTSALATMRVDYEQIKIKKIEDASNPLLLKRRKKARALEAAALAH
# Method: as §1, §2, §3, §4, §5
# GSK3B (GSK3 beta) = target: T3, GSK3B (GSK3 beta) (Homo sapiens, UniProt P49841); assay: Kinase selectivity test (ThermoFisher); assay type: biochemical; parameters: concentration or dose not given beside the values
# T3 construct: purchased ThermoFisher USA (contract testing)
# T3 sequence (P49841 whole entry): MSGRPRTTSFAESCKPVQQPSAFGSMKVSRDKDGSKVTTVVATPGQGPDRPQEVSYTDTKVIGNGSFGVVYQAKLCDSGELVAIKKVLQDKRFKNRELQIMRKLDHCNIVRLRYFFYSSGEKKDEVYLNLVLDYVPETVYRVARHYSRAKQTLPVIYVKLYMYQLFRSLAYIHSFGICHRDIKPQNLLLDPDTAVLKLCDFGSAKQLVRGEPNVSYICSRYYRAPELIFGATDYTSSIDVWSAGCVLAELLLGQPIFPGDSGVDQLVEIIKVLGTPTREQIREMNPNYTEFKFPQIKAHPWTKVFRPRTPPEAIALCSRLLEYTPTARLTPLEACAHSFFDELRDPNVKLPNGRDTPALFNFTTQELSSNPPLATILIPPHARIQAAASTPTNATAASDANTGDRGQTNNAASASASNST
# Method: as §1, §2, §3, §4, §5
# CAMK1 (CaMK1) = target: T4, CAMK1 (CaMK1) (Homo sapiens, UniProt Q14012); assay: Kinase selectivity test (ThermoFisher); assay type: biochemical; parameters: concentration or dose not given beside the values
# T4 construct: purchased ThermoFisher USA (contract testing)
# T4 sequence (Q14012 whole entry): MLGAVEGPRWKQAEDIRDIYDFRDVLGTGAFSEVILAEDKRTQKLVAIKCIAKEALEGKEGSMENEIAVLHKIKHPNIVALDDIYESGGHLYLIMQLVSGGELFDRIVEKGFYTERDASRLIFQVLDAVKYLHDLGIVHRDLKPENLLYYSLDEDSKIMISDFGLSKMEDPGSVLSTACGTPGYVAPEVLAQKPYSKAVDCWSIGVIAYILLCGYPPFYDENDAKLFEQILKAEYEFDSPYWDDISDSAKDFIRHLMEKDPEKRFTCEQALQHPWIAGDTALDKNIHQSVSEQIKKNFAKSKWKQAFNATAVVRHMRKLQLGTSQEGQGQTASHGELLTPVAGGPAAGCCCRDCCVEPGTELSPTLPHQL
# Method: as §1, §2, §3, §4, §5
# GSK3A (GSK3 alpha) = target: T5, GSK3A (GSK3 alpha) (Homo sapiens, UniProt P49840); assay: Kinase selectivity test (ThermoFisher); assay type: biochemical; parameters: concentration or dose not given beside the values
# T5 construct: purchased ThermoFisher USA (contract testing)
# T5 sequence (P49840 whole entry): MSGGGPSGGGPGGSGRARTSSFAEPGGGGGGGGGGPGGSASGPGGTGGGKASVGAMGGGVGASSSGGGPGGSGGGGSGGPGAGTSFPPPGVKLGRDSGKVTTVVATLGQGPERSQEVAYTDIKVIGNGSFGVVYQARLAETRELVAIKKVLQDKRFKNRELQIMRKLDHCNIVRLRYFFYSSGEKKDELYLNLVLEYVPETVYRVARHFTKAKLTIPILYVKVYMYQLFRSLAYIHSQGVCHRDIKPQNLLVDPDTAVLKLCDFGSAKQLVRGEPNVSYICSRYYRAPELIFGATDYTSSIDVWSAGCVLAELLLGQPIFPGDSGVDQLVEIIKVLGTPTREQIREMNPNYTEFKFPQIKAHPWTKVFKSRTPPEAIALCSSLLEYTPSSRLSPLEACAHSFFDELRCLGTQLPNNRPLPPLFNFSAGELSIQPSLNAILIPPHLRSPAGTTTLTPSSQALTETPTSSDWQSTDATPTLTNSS
# Method: as §1, §2, §3, §4, §5
# FLT3 D835Y = target: T6, FLT3 D835Y (Homo sapiens, UniProt P36888, D835Y); assay: Kinase selectivity test (ThermoFisher); assay type: biochemical; parameters: concentration or dose not given beside the values
# T6 construct: purchased ThermoFisher USA (contract testing)
# T6 sequence (P36888 27-993 D835Y): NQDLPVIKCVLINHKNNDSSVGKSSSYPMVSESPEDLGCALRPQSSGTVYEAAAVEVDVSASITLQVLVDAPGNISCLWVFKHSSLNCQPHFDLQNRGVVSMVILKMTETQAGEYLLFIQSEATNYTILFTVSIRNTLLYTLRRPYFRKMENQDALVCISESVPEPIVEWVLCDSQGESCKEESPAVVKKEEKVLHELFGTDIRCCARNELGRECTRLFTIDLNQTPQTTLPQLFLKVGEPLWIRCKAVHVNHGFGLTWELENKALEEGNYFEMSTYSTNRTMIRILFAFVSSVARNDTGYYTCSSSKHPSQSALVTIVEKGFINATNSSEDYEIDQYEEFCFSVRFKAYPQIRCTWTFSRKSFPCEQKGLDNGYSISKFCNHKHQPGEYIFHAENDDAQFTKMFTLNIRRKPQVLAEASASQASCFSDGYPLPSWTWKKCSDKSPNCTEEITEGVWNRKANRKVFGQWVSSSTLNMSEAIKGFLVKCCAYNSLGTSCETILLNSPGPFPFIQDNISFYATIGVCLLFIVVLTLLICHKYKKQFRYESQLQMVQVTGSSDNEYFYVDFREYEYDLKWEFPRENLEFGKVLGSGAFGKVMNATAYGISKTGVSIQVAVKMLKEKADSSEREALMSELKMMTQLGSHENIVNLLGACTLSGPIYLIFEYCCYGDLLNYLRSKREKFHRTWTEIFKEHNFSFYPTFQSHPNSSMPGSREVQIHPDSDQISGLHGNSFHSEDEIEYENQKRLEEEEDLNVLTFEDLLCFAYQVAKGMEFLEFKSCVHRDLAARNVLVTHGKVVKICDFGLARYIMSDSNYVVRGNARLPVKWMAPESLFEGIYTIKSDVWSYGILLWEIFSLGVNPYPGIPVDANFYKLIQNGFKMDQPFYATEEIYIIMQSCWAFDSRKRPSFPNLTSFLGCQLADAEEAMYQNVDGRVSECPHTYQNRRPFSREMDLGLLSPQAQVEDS
# Method: as §1, §2, §3, §4, §5
# MET (cMet) = target: T7, MET (cMet) (Homo sapiens, UniProt P08581); assay: Kinase selectivity test (ThermoFisher); assay type: biochemical; parameters: concentration or dose not given beside the values
# T7 construct: purchased ThermoFisher USA (contract testing)
# T7 sequence (P08581 25-1390): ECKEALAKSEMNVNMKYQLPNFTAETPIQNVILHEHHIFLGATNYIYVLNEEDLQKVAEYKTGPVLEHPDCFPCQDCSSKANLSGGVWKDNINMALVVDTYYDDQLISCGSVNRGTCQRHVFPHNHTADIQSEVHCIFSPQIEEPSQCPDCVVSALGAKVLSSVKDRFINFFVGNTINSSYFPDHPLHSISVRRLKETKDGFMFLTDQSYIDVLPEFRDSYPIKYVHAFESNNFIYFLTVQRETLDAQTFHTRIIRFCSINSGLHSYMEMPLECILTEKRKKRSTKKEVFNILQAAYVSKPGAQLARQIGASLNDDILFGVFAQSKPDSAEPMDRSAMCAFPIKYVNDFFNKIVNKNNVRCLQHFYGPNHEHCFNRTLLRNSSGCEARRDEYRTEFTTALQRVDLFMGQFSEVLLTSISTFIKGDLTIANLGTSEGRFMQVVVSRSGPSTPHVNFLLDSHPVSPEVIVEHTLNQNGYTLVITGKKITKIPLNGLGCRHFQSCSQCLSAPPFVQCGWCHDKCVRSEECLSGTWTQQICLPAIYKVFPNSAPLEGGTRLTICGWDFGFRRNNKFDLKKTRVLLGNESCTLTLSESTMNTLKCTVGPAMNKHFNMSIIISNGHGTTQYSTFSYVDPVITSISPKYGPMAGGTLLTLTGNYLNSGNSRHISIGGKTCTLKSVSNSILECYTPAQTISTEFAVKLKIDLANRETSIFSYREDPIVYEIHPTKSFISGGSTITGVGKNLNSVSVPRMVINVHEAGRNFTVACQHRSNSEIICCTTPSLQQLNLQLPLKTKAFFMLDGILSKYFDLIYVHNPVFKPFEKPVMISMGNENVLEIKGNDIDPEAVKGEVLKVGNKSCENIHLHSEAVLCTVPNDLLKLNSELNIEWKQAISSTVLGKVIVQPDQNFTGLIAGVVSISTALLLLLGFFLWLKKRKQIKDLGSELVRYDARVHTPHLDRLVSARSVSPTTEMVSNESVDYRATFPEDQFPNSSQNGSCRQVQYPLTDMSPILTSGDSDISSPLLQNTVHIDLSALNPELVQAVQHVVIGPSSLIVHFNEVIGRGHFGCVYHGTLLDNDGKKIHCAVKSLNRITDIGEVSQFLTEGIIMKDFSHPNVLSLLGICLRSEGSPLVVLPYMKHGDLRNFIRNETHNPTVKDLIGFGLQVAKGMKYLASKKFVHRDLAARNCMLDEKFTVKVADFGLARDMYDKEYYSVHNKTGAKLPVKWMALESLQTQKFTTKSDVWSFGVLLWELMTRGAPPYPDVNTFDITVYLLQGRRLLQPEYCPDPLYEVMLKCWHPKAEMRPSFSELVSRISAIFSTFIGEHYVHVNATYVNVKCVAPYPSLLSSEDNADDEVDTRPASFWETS
# Method: as §1, §2, §3, §4, §5
# JAK2 = target: T8, JAK2 (Homo sapiens, UniProt O60674); assay: Kinase selectivity test (ThermoFisher); assay type: biochemical; parameters: concentration or dose not given beside the values
# T8 construct: purchased ThermoFisher USA (contract testing)
# T8 sequence (O60674 whole entry): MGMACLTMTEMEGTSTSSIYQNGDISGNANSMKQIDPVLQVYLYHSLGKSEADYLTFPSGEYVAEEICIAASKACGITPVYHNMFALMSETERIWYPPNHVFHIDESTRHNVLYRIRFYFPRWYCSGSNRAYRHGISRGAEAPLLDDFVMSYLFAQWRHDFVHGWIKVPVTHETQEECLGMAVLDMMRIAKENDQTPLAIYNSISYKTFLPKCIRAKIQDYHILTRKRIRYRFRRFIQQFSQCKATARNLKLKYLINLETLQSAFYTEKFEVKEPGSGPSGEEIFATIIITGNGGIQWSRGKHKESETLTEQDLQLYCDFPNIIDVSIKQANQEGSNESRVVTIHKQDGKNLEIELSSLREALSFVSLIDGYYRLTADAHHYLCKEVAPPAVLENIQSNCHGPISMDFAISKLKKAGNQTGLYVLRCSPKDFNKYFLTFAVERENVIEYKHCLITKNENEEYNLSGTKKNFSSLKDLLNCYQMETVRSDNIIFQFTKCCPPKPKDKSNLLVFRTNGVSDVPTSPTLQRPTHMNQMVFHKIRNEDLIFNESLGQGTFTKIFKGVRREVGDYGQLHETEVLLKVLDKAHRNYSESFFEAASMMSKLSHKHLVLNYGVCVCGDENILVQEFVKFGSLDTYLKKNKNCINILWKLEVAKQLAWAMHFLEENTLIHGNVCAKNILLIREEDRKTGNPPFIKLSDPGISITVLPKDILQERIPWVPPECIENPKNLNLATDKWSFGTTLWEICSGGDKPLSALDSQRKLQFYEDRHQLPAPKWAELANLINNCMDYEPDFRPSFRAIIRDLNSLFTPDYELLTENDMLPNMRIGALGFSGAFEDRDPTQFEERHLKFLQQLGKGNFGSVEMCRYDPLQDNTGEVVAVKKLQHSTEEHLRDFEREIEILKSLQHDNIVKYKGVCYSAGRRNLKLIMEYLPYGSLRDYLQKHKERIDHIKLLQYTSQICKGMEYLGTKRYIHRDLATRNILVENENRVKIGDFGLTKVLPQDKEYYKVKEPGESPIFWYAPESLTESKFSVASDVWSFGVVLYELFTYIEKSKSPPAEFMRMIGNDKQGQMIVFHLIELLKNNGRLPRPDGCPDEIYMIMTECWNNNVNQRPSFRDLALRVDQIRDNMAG
# Method: as §1, §2, §3, §4, §5
SMILES,TGI (%) (calculated by the tumor volume) (NCI-H358 cell xenograft; 10 mpk/QD),Inhibition (%) Target 1 (CDK8/ cyclin C),Inhibition (%) Target 2 (CDK8/ cyclin C),Inhibition (%) Mean value (CDK8/ cyclin C),Inhibition (%) Target 1 (MAPKAPK2),Inhibition (%) Target 2 (MAPKAPK2),Inhibition (%) Mean value (MAPKAPK2),Inhibition (%) Target 1 (GSK3B (GSK3 beta)),Inhibition (%) Target 2 (GSK3B (GSK3 beta)),Inhibition (%) Mean value (GSK3B (GSK3 beta)),Inhibition (%) Target 1 (CAMK1 (CaMK1)),Inhibition (%) Target 2 (CAMK1 (CaMK1)),Inhibition (%) Mean value (CAMK1 (CaMK1)),Inhibition (%) Target 1 (GSK3A (GSK3 alpha)),Inhibition (%) Target 2 (GSK3A (GSK3 alpha)),Inhibition (%) Mean value (GSK3A (GSK3 alpha)),Inhibition (%) Target 1 (FLT3 D835Y),Inhibition (%) Target 2 (FLT3 D835Y),Inhibition (%) Mean value (FLT3 D835Y),Inhibition (%) Target 1 (MET (cMet)),further results
"C[C@@H]1OCC2(CCN(c3ncc(Sc4ccnc(N5CC(C(C)(C)O)C5)c4Cl)nc3CO)CC2)[C@@H]1N [Example 12, 2-(1-(4-(5-((3S,4S)-4-amino-3-methyl-2-oxa-8-azaspiro[4.5]decan-8-yl)-6-(hydroxymethyl)pyrazin-2-ylthio)-3-chloropyridin-2-yl)azetidin-3-yl)propan-2-ol]",93.14%,7%,−3%,2%,31%,27%,29%,7%,7%,7%,−9%,−16%,−12%,9%,8%,8%,5%,6%,6%,−1%,TGI (%) (calculated by the tumor volume) (NCI-H358 cell xenograft; 3 mpk/QD): 84.35%; tumor inhibitory effect (in words) (NCI-H358 cell xenograft; oral administration for 21 consecutive days): remarkable tumor inhibitory effect; Inhibition (%) Target 2 (MET (cMet)): 16%; Inhibition (%) Mean value (MET (cMet)): 7%; Inhibition (%) Target 1 (JAK2): −7%; Inhibition (%) Target 2 (JAK2): −2%; Inhibition (%) Mean value (JAK2): −4%
"C[C@@H]1OCC2(CCN(c3cnc(Sc4ccnc(N)c4Cl)c(N)n3)CC2)[C@@H]1N [TNO-155, reference compound]",58.49%,89%,89%,89%,106%,107%,106%,96%,96%,96%,55%,46%,51%,92%,87%,90%,71%,69%,70%,42%,TGI (%) (calculated by the tumor volume) (NCI-H358 cell xenograft; 5 mpk/BID): 68.59%; Inhibition (%) Target 2 (MET (cMet)): 40%; Inhibition (%) Mean value (MET (cMet)): 41%; Inhibition (%) Target 1 (JAK2): 61%; Inhibition (%) Target 2 (JAK2): 57%; Inhibition (%) Mean value (JAK2): 59%
